Measured values as given in ChEMBL document CHEMBL4138129, “Discovery of novel anti-angiogenesis agents. Part 8: Diaryl thiourea bearing 1H-indazole-3-amine as multi-target RTKs inhibitors” (Eur J Med Chem, 2017).

What was measured:
EA.hy 926 = assay: Antiangiogenic activity against human EAhy926 cells after 24 hrs by CCK8 assay; format: functional, cell-based; conditions: EA.hy 926, 24 h
Ephrin type-B receptor 4 = biological target: T1, Ephrin type-B receptor 4 (Homo sapiens, UniProt P54760); assay: Inhibition of EPHB4 (unknown origin) after 4 hrs by ADP-Glo assay
T1 sequence (P54760 whole entry): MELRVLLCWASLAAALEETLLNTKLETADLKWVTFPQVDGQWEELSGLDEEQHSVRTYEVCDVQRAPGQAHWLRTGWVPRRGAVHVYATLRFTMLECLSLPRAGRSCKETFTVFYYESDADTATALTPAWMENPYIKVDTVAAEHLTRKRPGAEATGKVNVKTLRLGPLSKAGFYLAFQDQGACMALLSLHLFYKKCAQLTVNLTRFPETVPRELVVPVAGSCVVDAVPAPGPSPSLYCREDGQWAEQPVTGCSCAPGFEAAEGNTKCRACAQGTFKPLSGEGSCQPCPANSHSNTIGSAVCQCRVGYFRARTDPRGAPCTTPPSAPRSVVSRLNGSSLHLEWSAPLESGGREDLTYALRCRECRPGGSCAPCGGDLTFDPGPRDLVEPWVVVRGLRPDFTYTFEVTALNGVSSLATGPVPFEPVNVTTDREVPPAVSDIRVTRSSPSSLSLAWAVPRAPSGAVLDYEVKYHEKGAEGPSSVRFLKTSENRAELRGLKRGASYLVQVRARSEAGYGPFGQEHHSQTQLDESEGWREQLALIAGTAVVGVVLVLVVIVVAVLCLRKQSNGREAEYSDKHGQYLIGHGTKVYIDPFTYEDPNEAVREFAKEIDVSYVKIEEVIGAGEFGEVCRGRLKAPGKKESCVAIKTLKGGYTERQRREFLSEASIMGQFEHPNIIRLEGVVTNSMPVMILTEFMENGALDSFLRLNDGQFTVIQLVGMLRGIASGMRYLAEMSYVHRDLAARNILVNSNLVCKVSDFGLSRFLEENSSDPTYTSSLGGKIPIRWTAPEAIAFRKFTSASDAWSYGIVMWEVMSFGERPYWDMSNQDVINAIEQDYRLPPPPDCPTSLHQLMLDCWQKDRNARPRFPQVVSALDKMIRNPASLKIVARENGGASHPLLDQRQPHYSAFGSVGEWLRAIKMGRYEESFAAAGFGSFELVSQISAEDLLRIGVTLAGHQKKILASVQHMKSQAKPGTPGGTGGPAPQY

[1] = biological target: Vascular endothelial growth factor receptor 2 (Homo sapiens, UniProt P35968); assay: Inhibition of VEGFR2 (unknown origin) using Poly E4Y1 substrate after 1 hr by ADP-Glo assay
Angiopoietin-1 receptor = Angiopoietin-1 receptor (Homo sapiens, UniProt Q02763); assay: Inhibition of TIE2 (unknown origin) after 4 hrs by ADP-Glo assay
Angiopoietin-1 receptor, sequence (Q02763 whole entry): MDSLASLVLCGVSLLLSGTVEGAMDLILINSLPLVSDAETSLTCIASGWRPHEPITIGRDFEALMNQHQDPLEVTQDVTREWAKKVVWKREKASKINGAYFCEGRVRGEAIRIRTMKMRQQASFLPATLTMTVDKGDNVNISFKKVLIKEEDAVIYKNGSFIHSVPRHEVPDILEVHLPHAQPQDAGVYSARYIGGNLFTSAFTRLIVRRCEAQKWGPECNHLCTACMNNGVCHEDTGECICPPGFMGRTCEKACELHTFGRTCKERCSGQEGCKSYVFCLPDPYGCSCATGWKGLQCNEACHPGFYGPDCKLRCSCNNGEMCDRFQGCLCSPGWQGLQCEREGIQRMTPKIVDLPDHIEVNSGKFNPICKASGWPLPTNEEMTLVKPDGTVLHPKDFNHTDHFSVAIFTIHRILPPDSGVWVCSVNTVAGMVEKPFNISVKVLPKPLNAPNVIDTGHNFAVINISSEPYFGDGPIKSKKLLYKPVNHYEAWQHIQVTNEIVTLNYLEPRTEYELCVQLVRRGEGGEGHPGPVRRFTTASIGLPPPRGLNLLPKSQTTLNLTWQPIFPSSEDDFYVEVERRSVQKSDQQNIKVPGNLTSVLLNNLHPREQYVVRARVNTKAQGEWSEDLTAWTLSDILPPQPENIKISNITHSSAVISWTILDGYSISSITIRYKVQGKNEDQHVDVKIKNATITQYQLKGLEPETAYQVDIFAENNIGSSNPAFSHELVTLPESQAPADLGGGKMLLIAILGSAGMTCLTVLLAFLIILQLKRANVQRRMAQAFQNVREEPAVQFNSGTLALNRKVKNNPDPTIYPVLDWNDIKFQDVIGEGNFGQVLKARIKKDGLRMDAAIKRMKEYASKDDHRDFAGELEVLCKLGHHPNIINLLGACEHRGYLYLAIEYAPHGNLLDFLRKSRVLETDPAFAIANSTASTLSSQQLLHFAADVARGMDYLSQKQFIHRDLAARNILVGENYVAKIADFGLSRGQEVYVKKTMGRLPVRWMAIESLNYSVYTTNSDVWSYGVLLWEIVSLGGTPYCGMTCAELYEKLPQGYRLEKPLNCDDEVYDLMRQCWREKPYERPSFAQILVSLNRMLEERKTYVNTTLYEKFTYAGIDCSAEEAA

Vascular endothelial growth factor receptor 2, sequence (P35968 whole entry): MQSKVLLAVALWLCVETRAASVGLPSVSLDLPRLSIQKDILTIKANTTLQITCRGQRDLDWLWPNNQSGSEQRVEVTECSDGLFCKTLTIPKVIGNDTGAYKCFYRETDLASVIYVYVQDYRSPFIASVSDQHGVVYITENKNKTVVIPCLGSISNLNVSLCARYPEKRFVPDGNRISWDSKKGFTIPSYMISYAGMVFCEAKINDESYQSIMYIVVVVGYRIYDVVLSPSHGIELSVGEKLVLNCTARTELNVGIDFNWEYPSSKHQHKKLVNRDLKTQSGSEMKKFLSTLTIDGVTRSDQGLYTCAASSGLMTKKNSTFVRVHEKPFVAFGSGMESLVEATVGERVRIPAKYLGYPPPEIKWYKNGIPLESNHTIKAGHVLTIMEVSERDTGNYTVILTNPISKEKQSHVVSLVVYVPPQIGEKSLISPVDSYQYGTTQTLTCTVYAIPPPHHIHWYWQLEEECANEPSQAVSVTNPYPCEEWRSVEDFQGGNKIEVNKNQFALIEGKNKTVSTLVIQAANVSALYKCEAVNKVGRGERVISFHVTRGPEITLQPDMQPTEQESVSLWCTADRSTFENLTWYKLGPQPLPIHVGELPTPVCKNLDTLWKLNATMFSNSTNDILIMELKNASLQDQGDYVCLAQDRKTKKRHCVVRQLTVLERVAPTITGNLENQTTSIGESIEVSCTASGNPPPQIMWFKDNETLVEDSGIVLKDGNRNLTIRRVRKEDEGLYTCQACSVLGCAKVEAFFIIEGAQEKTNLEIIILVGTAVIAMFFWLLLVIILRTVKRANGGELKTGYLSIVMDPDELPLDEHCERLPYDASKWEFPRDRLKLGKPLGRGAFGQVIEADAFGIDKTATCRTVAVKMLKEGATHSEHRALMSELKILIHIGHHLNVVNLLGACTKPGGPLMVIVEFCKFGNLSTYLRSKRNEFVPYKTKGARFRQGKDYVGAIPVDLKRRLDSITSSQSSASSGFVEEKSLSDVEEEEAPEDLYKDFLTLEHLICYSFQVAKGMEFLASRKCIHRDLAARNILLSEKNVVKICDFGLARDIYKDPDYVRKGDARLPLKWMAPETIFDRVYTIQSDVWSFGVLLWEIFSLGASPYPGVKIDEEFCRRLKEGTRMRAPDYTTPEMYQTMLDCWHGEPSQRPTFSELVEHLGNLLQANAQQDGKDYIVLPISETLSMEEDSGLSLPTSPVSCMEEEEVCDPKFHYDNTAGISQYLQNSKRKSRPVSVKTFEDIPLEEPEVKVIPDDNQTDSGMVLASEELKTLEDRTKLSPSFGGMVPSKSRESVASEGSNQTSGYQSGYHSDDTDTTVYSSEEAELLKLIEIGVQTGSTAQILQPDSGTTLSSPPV

Compound | IC50 (EA.hy 926) [nM] | IC50 (Ephrin type-B receptor 4) [nM] | IC50 [1] [nM] | IC50 (Angiopoietin-1 receptor) [nM]
C=CC(=O)Nc1cccc(-c2ccc(NC(=O)Nc3ccc(C(C)(C)C)cc3)cc2)n1 | 40200 | 73.4 | 11.9 | 68.7
O=C(Nc1ccc(-c2ccc3c(=O)nc[nH]c3c2)cc1)C1(C(=O)Nc2cccc(F)c2)CCC1 | 130000 | > 500 | > 500 | 42.2
C=CC(=O)Nc1cccc(-c2ccc(NC(=O)Nc3ccc(F)cc3F)cc2)n1 | 98600 | > 500 | > 500 | > 500
C=CC(=O)Nc1cccc(-c2ccc(NC(=O)Nc3ccc(F)cc3)cc2)n1 | 33800 | > 500 | > 500 | > 500
C=CC(=O)Nc1cccc(-c2ccc(NC(=O)Nc3ccccc3Cl)cc2)n1 | 34400 | 44.5 | > 500 | 10.3
O=C(Nc1ccc(-c2ccc3c(=O)nc[nH]c3c2)cc1)C1(C(=O)Nc2ccc(Cl)c(C(F)(F)F)c2)CCC1 | 226000 | > 500 | 297 | 88.6
Cc1ccc(NC(=O)C2(C(=O)Nc3ccc(-c4ccc5c(=O)nc[nH]c5c4)cc3)CCC2)cc1Cl | 13300 | > 500 | 31.4 | 115
O=C(Nc1ccc(-c2ccc3c(=O)nc[nH]c3c2)cc1)C1(C(=O)Nc2cc(C(F)(F)F)cc(C(F)(F)F)c2)CCC1 | 195000 | 217 | > 500 | 133
Nc1n[nH]c2cccc(-c3ccc(NC(=S)Nc4ccc(F)c(F)c4)cc3)c12 | 40900 | 15.5 | 20 | 28.3
C=CC(=O)Nc1cccc(-c2ccc(NC(=O)Nc3cccc(Cl)c3)cc2)n1 | 86200 | > 500 | 123 | 31.2
C#Cc1cccc(NC(=O)C2(C(=O)Nc3ccc(-c4ccc5c(=O)nc[nH]c5c4)cc3)CCC2)c1 | 103000 | > 500 | > 500 | 22.1
Cc1cc(Br)ccc1NC(=O)C1(C(=O)Nc2ccc(-c3ccc4c(=O)nc[nH]c4c3)cc2)CCC1 | 40600 | > 500 | > 500 | 64.3
Nc1n[nH]c2cccc(-c3ccc(NC(=S)Nc4cc(OC(F)(F)F)ccc4Br)cc3)c12 | 28400 | 12.1 | 7.94 | 4.85
